Laboratory results as given in ChEMBL document CHEMBL2203097, “7-Phenyl-pyrido[2,3-d]pyrimidine-2,4-diamines: novel and highly selective protein tyrosine phosphatase 1B inhibitors” (Bioorg Med Chem Lett, 2012).
One block for each molecule: values may come before it. The source made the active and inactive calls. The rule behind the calls is not given here.

Assays:
[1] = biological target: T1, Tyrosine-protein phosphatase non-receptor type 1 (Homo sapiens, UniProt P18031); assay: Inhibition of human PTP1B (1 to 321 amino acid residues) expressed in Escherichia coli using TRDI(pY)E as substrate incubated for 15 mins prior to substrate addition measured after 20 mins by malachite green staining-based colorimetric assay
T1 sequence (P18031 whole entry): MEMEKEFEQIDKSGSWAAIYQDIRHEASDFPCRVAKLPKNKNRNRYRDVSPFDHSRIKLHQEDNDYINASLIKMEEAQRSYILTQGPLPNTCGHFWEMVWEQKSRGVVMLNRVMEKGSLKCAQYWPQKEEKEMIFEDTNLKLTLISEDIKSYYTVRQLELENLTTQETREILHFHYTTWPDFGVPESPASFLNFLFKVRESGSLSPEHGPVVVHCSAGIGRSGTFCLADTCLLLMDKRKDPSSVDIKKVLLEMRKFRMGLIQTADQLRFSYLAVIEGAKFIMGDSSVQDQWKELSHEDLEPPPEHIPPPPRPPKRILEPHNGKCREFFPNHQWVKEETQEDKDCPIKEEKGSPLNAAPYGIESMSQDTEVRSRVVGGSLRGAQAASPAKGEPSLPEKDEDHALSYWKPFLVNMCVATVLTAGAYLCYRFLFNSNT

[2] = Half life in C57 mouse at 50 mg/kg, po; type: ADME, organism-based; set-up: dose 50 mg/kg, route oral; conditions: in vivo
[3] = organism: Homo sapiens; assay: Selectivity ratio of IC50 for PTPgamma to IC50 for human PTP1B (1 to 321 amino acid residues)
[4] = AUC in C57 mouse at 50 mg/kg, po; type: ADME, organism-based; set-up: dose 50 mg/kg, route oral; conditions: plasma
[5] = organism: Homo sapiens; assay: Selectivity ratio of IC50 for YOP to IC50 for human PTP1B (1 to 321 amino acid residues)
[6] = organism: Homo sapiens; assay: Selectivity ratio of IC50 for PTPalpha to IC50 for human PTP1B (1 to 321 amino acid residues)
[7] = organism: Homo sapiens; assay: Selectivity ratio of IC50 for LAR to IC50 for human PTP1B (1 to 321 amino acid residues)
[8] = organism: Homo sapiens; assay: Selectivity ratio of IC50 for SHP2 to IC50 for human PTP1B (1 to 321 amino acid residues)
[9] = AUC in C57 mouse at 5 mg/kg, iv; type: ADME, organism-based; set-up: dose 5 mg/kg, route intravenous; conditions: plasma
[10] = Oral bioavailability in C57 mouse at 50 mg/kg; type: ADME, organism-based; conditions: in vivo
[11] = organism: Homo sapiens; assay: Selectivity ratio of IC50 for TCPTP to IC50 for human PTP1B (1 to 321 amino acid residues)
[12] = biological target: T2, Tyrosine-protein phosphatase non-receptor type 1 (Homo sapiens) (UniProt P18031); conditions: 0.29 to 3.3 uM
T2 sequence (whole entry): T1 sequence (P18031 whole entry)
Description: Uncompetitive inhibition of human PTP1B (1 to 321 amino acid residues) expressed in Escherichia coli using DiFMUP as substrate at 0.29 to 3.3 uM by Lineweaver-Burke plot analysis

[13] = organism: Homo sapiens; assay: Selectivity ratio of IC50 for PTPbeta to IC50 for human PTP1B (1 to 321 amino acid residues)
[14] = organism: Homo sapiens; assay: Selectivity ratio of IC50 for HCP to IC50 for human PTP1B (1 to 321 amino acid residues)
[15] = Volume of distribution in C57 mouse at 5 mg/kg, iv; type: ADME, organism-based; set-up: dose 5 mg/kg, route intravenous; conditions: in vivo
[16] = Cmax in C57 mouse at 50 mg/kg, po; type: ADME, organism-based; set-up: dose 50 mg/kg, route oral; conditions: in vivo
[17] = organism: Homo sapiens; assay: Selectivity ratio of IC50 for PTPepsilon to IC50 for human PTP1B (1 to 321 amino acid residues)
[18] = organism: Homo sapiens; assay: Selectivity ratio of IC50 for CD45 to IC50 for human PTP1B (1 to 321 amino acid residues)
[19] = Clearance in C57 mouse at 5 mg/kg, iv; type: ADME, organism-based; set-up: dose 5 mg/kg, route intravenous; conditions: in vivo
[20] = Clearance in C57 mouse at 10 mg/kg, iv; type: ADME, organism-based; set-up: dose 10 mg/kg, route intravenous; conditions: in vivo
[21] = Volume of distribution in C57 mouse at 10 mg/kg, iv; type: ADME, organism-based; set-up: dose 10 mg/kg, route intravenous; conditions: in vivo
[22] = AUC in C57 mouse at 10 mg/kg, iv; type: ADME, organism-based; set-up: dose 10 mg/kg, route intravenous; conditions: plasma

Compound: CNc1nc(N)nc2nc(-c3c(F)cccc3N3CCCC3)ccc12
- IC50 [1]: 620 nM

Compound: CNc1nc(N)nc2nc(-c3ccccc3OC)ccc12
- IC50 [1]: 2790 nM

Compound: CNc1nc(N)nc2nc(-c3cc(Cl)ccc3Cl)ccc12
- IC50 [1]: 960 nM

Compound: CNc1nc(N)nc2nc(-c3ccccc3[N+](=O)[O-])ccc12
- IC50 [1]: 1370 nM

Compound: CNc1nc(N)nc2nc(-c3c(N4CCOCC4)cccc3C(F)(F)F)ccc12
- IC50 [1]: 1150 nM

Compound: CNc1nc(N)nc2nc(-c3c(Cl)cccc3N3CCCC3)ccc12
- IC50 [1]: 820 nM

Compound: CNc1nc(N)nc2nc(-c3ccccc3Cl)ccc12
- IC50 [1]: 1160 nM

Compound: CNc1nc(N)nc2nc(-c3c(N4CCCC4)cccc3C(F)(F)F)ccc12
- IC50 [1]: 430 nM

Compound: CNc1nc(N)nc2nc(-c3c(N4CCCCC4)cccc3C(F)(F)F)ccc12
- IC50 [1]: 1350 nM

Compound: CNc1nc(N)nc2nc(-c3ccccc3C(=O)O)ccc12
- IC50 [1]: 2390 nM

Compound: CNc1nc(N)nc2nc(-c3ccccc3Br)ccc12
- IC50 [1]: 530 nM

Compound: CNc1nc(N)nc2nc(-c3cccc(Cl)c3Cl)ccc12
- IC50 [1]: 1180 nM

Compound: CNc1nc(N)nc2nc(-c3ccc(Cl)cc3Cl)ccc12
- IC50 [1]: 610 nM

More lines, now with the values ahead:

- IC50 [1]: 1340 nM
Compound: CCNc1nc(N)nc2nc(-c3ccccc3C(F)(F)F)ccc12

- IC50 [1]: 500 nM
Compound: CNc1nc(N)nc2nc(-c3ccccc3C(F)(F)F)c(C)cc12

- half-life [2]: 7.2 h
- IC50 [1]: 480 nM
- Ratio IC50 [3]: > 100
- AUC [4]: 8990 ng·h/mL
- Ratio IC50 [5]: > 100
- Ratio IC50 [6]: > 100
- Ratio IC50 [7]: > 100
- Ratio IC50 [8]: > 100
- AUC [9]: 1370 ng·h/mL
- bioavailability [10]: 66%
- Ratio IC50 [11]: 2
- inhibition [12]: Active
- Ratio IC50 [13]: > 100
- Ratio IC50 [14]: > 100
- Vd [15]: 1.8 L/kg
- Cmax [16]: 3530 ng/mL
- Ratio IC50 [17]: > 100
- Ratio IC50 [18]: > 100
- clearance [19]: 61 mL/min/kg
Compound: CNc1nc(N)nc2nc(-c3ccccc3C(F)(F)F)ccc12

- IC50 [1]: 1000 nM
Compound: CNc1nc(N)nc2nc(-c3ccccc3C(F)(F)F)c(S(C)(=O)=O)cc12

- IC50 [1]: 350 nM
Compound: CNc1nc(N)nc2nc(-c3c(SC)cccc3C(F)(F)F)ccc12

- IC50 [1]: 2430 nM
Compound: CCCNc1nc(N)nc2nc(-c3ccccc3C(F)(F)F)ccc12

- IC50 [1]: 270 nM
Compound: CCCc1cc2c(NC)nc(N)nc2nc1-c1ccccc1C(F)(F)F

- IC50 [1]: 1850 nM
Compound: Nc1nc(NCCO)c2ccc(-c3ccccc3C(F)(F)F)nc2n1

- half-life [2]: 1.3 h
- IC50 [1]: 200 nM
- Ratio IC50 [3]: > 100
- clearance [20]: 24 mL/min/kg
- AUC [4]: 11000 ng·h/mL
- Ratio IC50 [5]: > 100
- Vd [21]: 0.9 L/kg
- Ratio IC50 [6]: > 100
- Ratio IC50 [7]: > 100
- Ratio IC50 [8]: > 100
- bioavailability [10]: 32%
- Ratio IC50 [11]: 2
- Ratio IC50 [13]: > 100
- AUC [22]: 6970 ng·h/mL
- Ratio IC50 [14]: > 100
- Cmax [16]: 2200 ng/mL
- Ratio IC50 [17]: > 100
- Ratio IC50 [18]: > 100
Compound: CNc1nc(N)nc2nc(-c3c(Oc4ccccc4)cccc3C(F)(F)F)ccc12

- IC50 [1]: 260 nM
Compound: CNc1nc(N)nc2nc(-c3c(F)cccc3C(F)(F)F)ccc12

- IC50 [1]: 560 nM
Compound: CNc1nc(N)nc2nc(-c3c(OC)cccc3C(F)(F)F)ccc12
